Reference: patent US6884600B1, “Protein phosphatase-1 catalytic subunit interactions” (Medical Research Council London, priority 1996, dated 2005)
Read-outs that look alike come from different tables or passages of the source. Blank lines part the entries; values can stand above or below the compound they belong to. No end group written: not given here.

How the values were obtained:
[1] = test system: PP1 and PP2A; conditions: refs [17], [19]; cited from earlier work
[2] = test system: PP1GL; assay: Phosphorylase phosphatase activity of PP1GL (hepatic glycogen particles); type: biochemical, rat
Description: Hepatic glycogen particles were diluted in assay buffer to 0.6 phosphorylase phosphatase (PhP) mU per ml, incubated for 15 minutes at 30° C. with GM-(G63-T93) (closed circles), GM-(G63-K80) (open circles) or GM-(G63-N75) (closed triangles) and assayed as described in Example 1. The open triangles show the effect of GM-(G63-N75) which had been phosphorylated at Ser67 by PKA (pGM-(G63-N75)). Similar results were obtained in four experiments.
(A) Hepatic glycogen protein particles containing PP1-GL were diluted and incubated for 15 min at 30° C. with the indicated concentrations of either M110[M1-F38] (open circles) or M110[M1-K35] (closed circles) and the phosphatase reactions were initiated by addition of ^32P-labelled glycogen phosphorylase. The results are expressed as a percentage of the activity determined in control incubations where the M110 peptides were omitted. Similar results were obtained in three separate experiments. (B) The experiment was carried out as in (A), except that the peptide GM[G63-N75] (“wild type”, WT) and variants in which either Val 66 (V66A) (closed triangles) or Phe 68 (F68A) (closed circles) were changed to Ala, were used instead of the M110 peptides. Similar results were obtained in three separate experiments.
(§1) The myosin-associated form of PP1 (PP1M) was from chicken gizzard and the glycogen-associated form of PP1 (PP1G) from rabbit skeletal muscle. The β isoform of PP1c was released from PP1G by incubation for 2 hours in 2M LiBr, then purified by gel-filtration on a 30×1 cm column of Superose 12 (Pharmacia, Milton Keynes, U.K.) in the presence of 0.5M LiBr. Glycogen protein particles from rat liver were used as the source of hepatic PP1G Digoxygenin-labelled PP1c (γ1-isoform, hereafter termed PP1) was prepared as in [9]. GL was expressed in E. coli as a glutathione-S-transferase (GST) fusion protein [7], termed GST-GL. The catalytic subunit of PP2A from bovine heart (PP2AC) was provided by Dr R. MacKintosh in this Unit. The phosphorylatable myosin light chain (MLC20) and heavy meromyosin from chicken gizzard were a gift from Dr M. Ikebe (Case Western Reserve University, Cleveland, USA). Thrombin and benzamidine-Agarose were purchased from Sigma (Poole, UK).
(§2) ^32P-labelled rabbit skeletal muscle phosphorylase a (containing 1.0 mol phosphate per mol subunit) was prepared by phosphorylation with phosphorylase kinase, ^32P-labelled rabbit skeletal muscle glycogen synthase (containing 1.5 mol/mol subunit in the sites 3 region) was prepared by phosphorylation with glycogen synthase kinase-3 [24]). ^32P-labelled chicken gizzard MLC20 and ^32P-labelled chicken gizzard heavy meromyosin (containing 1.0 mol phosphate per mol subunit) were prepared by phosphorylation with smooth muscle myosin light chain kinase. The dephosphorylation of phosphorylase a (10 μM), glycogen synthase (1 μM) and MLC20 (1 μM) and heavy meromyosin (1 μM) was carried out as in [24]. One unit of activity (U) was that amount which released […] of phosphate in one minute.
(§3) PP1c was isolated from the rabbit skeletal muscle PP1-GM complex as described previously (Johnson et al, 1996). Glycogen particles isolated from rat liver (Schelling el al, 1988) served as the source of PP1-GL. The dephosphorylation of glycogen phosphorylase (10 μM) and the isolated MLC20 of smooth muscle myosin (1 μM) by PP1c was carried out as described previously (Cohen et al., 1988; Alessi et al., 1992).

[3] = target: T1, PP1c (Oryctolagus cuniculus, UniProt P62143); assay: Phosphorylase phosphatase activity of PP1c; type: biochemical, rabbit
T1 construct: from tissue; host or cells: rabbit skeletal muscle (PP1G dissociated with LiBr)
Description: (§4) A,B; Effects of M110-(M1-E309) (closed circles), M110-(M1-F38) (open circles) and M110-(D39-E309) (open triangles) on the MLC20 phosphatase […] and phosphorylase phosphatase (B) activities of PP1c were measured after incubating PP1c for 15 minutes at 30° C. with each fragment. The results are presented as a percentage of those obtained in experiments where the M110 fragments were omitted.
(§5) C,D; The effect of M110-(M1-A150) (open circles) and M110-(L24-Y496) (closed circles) on the MLC20 phosphatase (C) and phosphorylase phosphatase (D) activities of PP1c were measured as in A,B.
(B) The phosphorylase phosphatase activity of PP1c was assayed as in A in the presence or absence of 1 μM GM-(G63-T93) and 1.0 nM M110-(M1-E309). The results are presented (SEM for three experiments) as a percentage of the PP1c activity measured in the absence of GM-(63-T93), M110-(M1-F38) or M110-(M1-E309).
as §1, §2, §3

[4] = target: T1, PP1c; assay: MLC20 (myosin P-light chain) phosphatase activity of PP1c; type: biochemical
Description: as §4, §5
(A) The MLC20 phosphatase activity of PP1c was assayed after incubation for 15 minutes at 30° C. in the presence or absence of 1 μM GM-(G63-T93) and either 0.1 μM M110-(M1-F38) or 0.1 nM M110-(M1-E309).
(1-38, open circles) or M110[M1-K35] (1-35, closed circles) were incubated with PP1c for 15 min at 30° C. and reactions started with the ^32P-labelled MLC20 substrate. The results are expressed as a % of the activity determined in control incubations where the M110 peptides were omitted (100%). Similar results were obtained in three separate experiments.
as §1, §2, §3
^32P-labelled myosin P-light chains containing 1.0 mol phosphate per mol subunit was prepared by phosphorylation with smooth muscle myosin light chain kinase. The dephosphorylation of myosin P-light chain (1 μM) was carried out as in [4] and one unit of activity (U) was that amount which catalysed the release of 1 μmole of phosphate in one min. When assaying PP1M in immunoprecipitates from the myofibrillar extracts, the tubes were shaken continuously and 3 nM okadaic acid was included to inhibit any PP2A present.

[5] = target: PP1c (γ1-isoform) (Homo sapiens, UniProt P36873); assay: Far Western: GST-GM fusion proteins probed with digoxygenin-labelled PP1γ; type: binding; conditions: GST-fusion proteins on blot probed with digoxygenin-labelled PP1γ
Excerpt: GST-GM fusion proteins were electrophoresed on 10% SDS/polyacrylamide gels and stained with Coomassie blue (lanes 1-3) or, after transfer to nitrocellulose, probed with digoxygenin-labelled PP1γ (lanes 4-6) as in [9]. Lanes 1 and 4, GST-GM-(E2-D118); Lanes 2 and 5, GST-GM-(H100-P350); Lanes 3 and 6, GST. The positions of the marker proteins glycogen phosphorylase (97 kDa), bovine serum albumin (66 kDa), ovalbumin (43 kDa), carbonic anhydrase (29 kDa) and soybean trypsin inhibitor (20 kDa) are indicated.
as §1, with “Thrombin and benzamidine-Agarose were purchased from Sigma (Poole, UK).” left out

[6] = target: T1, PP1c; assay: Glycogen synthase phosphatase activity of PP1c; type: biochemical, rabbit
Description: The glycogen synthase phosphatase activity of PP1c was measured after a 15 minute incubation at 30° C. with the indicated concentrations of M110-(M1-F38) and M110-(M1-E309). Similar results were obtained in three different experiments.
as §2

[7] = target: T1, PP1c; assay: Dephosphorylation of heavy meromyosin by PP1c; type: biochemical, rabbit; conditions: data not shown
Description: as §2

T1 sequence (P62143 whole entry): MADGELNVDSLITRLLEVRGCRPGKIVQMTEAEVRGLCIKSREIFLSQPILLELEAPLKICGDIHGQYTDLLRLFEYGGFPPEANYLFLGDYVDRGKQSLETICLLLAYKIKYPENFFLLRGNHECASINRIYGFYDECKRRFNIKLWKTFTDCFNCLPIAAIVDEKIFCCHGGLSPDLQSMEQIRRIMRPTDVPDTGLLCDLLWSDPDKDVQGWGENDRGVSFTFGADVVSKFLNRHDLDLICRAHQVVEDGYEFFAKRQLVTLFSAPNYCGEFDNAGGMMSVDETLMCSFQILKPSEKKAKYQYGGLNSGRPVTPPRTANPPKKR
PP1c (γ1-isoform), sequence (P36873 whole entry, the tested form may be a part, canonical isoform): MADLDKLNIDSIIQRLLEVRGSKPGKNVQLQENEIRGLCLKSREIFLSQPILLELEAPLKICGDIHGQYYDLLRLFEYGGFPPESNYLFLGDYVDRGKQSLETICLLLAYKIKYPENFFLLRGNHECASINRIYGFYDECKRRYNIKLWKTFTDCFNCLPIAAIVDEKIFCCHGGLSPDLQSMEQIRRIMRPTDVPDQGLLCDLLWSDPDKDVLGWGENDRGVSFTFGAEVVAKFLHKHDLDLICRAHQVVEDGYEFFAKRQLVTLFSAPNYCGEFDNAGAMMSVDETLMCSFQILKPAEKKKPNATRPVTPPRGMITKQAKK

Compound: C=C1[C@@H](O)[C@@H]2O[C@]3(CC[C@H](/C=C/[C@@H](C)[C@@H]4CC(C)=C[C@@]5(O[C@H](C[C@@](C)(O)C(=O)O)CC[C@H]5O)O4)O3)CC[C@H]2O[C@@H]1[C@@H](O)C[C@H](C)[C@H]1O[C@@]2(CCCCO2)CC[C@H]1C [okadaic acid]
relative potency as inhibitor of PP1 and PP2A [1]: a much more potent inhibitor of PP2A than PP1

Compound: CO[C@H]([C@H](O)CC(=O)[C@@H](C)[C@@H](O)CC[C@@H](C)[C@@H]1O[C@]2(CC[C@@H](C)[C@H](CC[C@H](C)C(C)=O)O2)CC[C@@H]1C)[C@H](OC(=O)C[C@@H](O)C1=C(C)C(=O)OC1=O)C(C)C [tautomycin]
relative potency as inhibitor of PP1 and PP2A [1]: a much more potent inhibitor of PP1 than PP2A

effect on the phosphorylase phosphatase activity of PP1GL ([2]; at concentrations up to 10 μM): no effect
effect on the phosphorylase phosphatase activity of PP1c ([3]; at concentrations up to 10 μM): no effect
Compound: GM-(E81-T93): peptide generated by cleaving GM-(G63-T93) with Lys-C endoproteinase (DCWELPSASTTFD; UniProt Q16821 81-93, looked up, fragment)

Compound: GM-(G63-N75): synthetic 13 residue peptide, residues 63-75 of GM (GRRVSFADNFGFN)
effect on the phosphorylase phosphatase activity of PP1GL ([2]; hepatic glycogen particles containing PP1-GL): increased the phosphorylase phosphatase activity of PP1GL, but were less effective than GM-(G63-T93)
effect on the phosphorylase phosphatase activity of PP1c ([3]; at concentrations up to 10 μM): did not increase the phosphorylase phosphatase activity of PP1c significantly

Compound: GST: glutathione-S-transferase [reference compound]
effect on the phosphorylase phosphatase activity of PP1c [3]: no effect
effect on the MLC20 phosphatase activity of PP1c [4]: no effect
interaction with PP1 in Far Western experiments [5]: did not interact with PP1c

Compound: MKMADAKQKRNEQLKRWIGSETDLEPPVVKRQKTKVKF [M110-(M1-F38)]
displacement of GL from PP1c [2]: capable of displacing GL from PP1GL
increase in the phosphorylase phosphatase activity of PP1GL ([2]; 10 μM peptide): 3.5 fold
effect on the dephosphorylation of glycogen synthase by PP1c [6]: greatly enhanced
effect on the dephosphorylation of heavy meromyosin by PP1c [7]: stimulated the dephosphorylation of heavy meromyosin in a similar manner to the dephosphorylation of MLC20
effect on the phosphorylase phosphatase activity of PP1c [3]: did not inhibit the phosphorylase phosphatase activity of PP1c
effect on the phosphorylase phosphatase activity of PP1c ([3]; each peptide individually, at concentrations up to 1 μM): no effect
EC50 [4]: 10 nM
concentration needed to modulate the specificity of PP1c compared to thrombin-cleaved M110-(M1-E309) [4]: at least 100 fold higher
effect on the MLC20 phosphatase activity of PP1c [4]: stimulate the MLC20 phosphatase activity of PP1c to the same extent as M110-(M1-E309)
increase in PP1c activity towards MLC20 (maximal activation) [4]: 3 fold
peptide concentration at maximal activation of the myosin light chain phosphatase activity of PP1c [4]: 1 µM
